# Reference: patent US20240391921A1, “CRYSTAL FORM OF IMIDAZOLINONE DERIVATIVE” (CHENGDU BAIYU PHARMACEUTICAL CO., LTD., priority 2021, published 2024)
# Columns and labels:
# [1] = Pharmacokinetic assay in ICR mice; format: in vivo; settings: male ICR mice, iv 1 mg/kg and po 10 mg/kg, plasma by LC/MS/MS
# Method: ICR mice (purchased from Beijing Viton Lihua Laboratory Animal Technology Co.)
# 2.2 Experimental procedure • (1) Healthy male ICR mice (18-22 g) were prepared, with 18 mice for each compound which were divided into 2 groups (iv and po groups) of 9 mice each, and 3 mice were selected for blood collection at each time point. • (2) After fasting (free water intake) overnight, the compound of the invention was solubilized (or formed into a suspension) with 5% DMSO, 95% 30% HP-β-CD (v: v) as solvent. The compound was administered via the tail vein (iv, 1 mg/kg) and by gavage (po, 10 mg/kg), respectively. • (3) In the iv group, 0.1 mL of blood was collected from the submandibular vein at 5 min, 15 min, 0.5 h, 1 h, 2 h, 4 h, 8 h, 12 h, and 24 h, respectively, and the blood was anticoagulated with EDTA-K2, and then centrifuged at 4° C. for 5 min to separate the plasma, which was stored at-20° C. before measurement. • (4) In the po group, 0.1 mL of blood was collected from the submandibular vein before and after administration at 15 min, 0.5h, 1h, 2h, 4h, 6h, 8h, 12h and 24h respectively, and processed in the same manner as in the iv group. • (5) The concentration of the compound of the present invention in plasma was determined by a LC/MS/MS method. • (6) The results were calculated and fitted using Analyst 1.6 from AB.
# [2] = Dynamic vapor sorption (DVS) test; format: physicochemical
# Method: The crystalline form I of Compound A prepared in Example 3 was subjected to dynamic vapor sorption test, and the dynamic vapor sorption (DVS) curves were acquired on DVS Intrinsic of SMS (Surface Measurement Systems). The relative humidity at 25° C. was corrected with the deliquescence points of LiCl, Mg (NO3)2, and KCl.
# [3] = Solid-state stability (XRPD for physical, HPLC purity for chemical stability); format: physicochemical
compound,measurement,setting,value
"CCn1c(=O)n(C2CCOCC2)c2nc(Nc3cc(F)c(C(N)=O)cc3C)ncc21 [Compound A, 4-((7-ethyl-8-oxo-9-(tetrahydro-2H-pyran-4-yl)-8,9-dihydro-7H-purin-2-yl)amino)-2-fluoro-5-methylbenzamide]",pharmacokinetic properties,[1],good pharmacokinetic properties
"CCn1c(=O)n(C2CCOCC2)c2nc(Nc3cc(F)c(C(N)=O)cc3C)ncc21 [crystalline form I, 4-((7-ethyl-8-oxo-9-(tetrahydro-2H-pyran-4-yl)-8,9-dihydro-7H-purin-2-yl)amino)-2-fluoro-5-methylbenzamide]",change in sample weight (DVS),[2]; 0% RH-95% RH-0% RH at 25° C.,less than 0.2%
same,hygroscopicity (DVS),[2]; 0% RH-95% RH-0% RH at 25° C.,free or almost free of hygroscopicity
same,transformation of crystalline form before and after DVS (XRPD comparison),[2]; XRPD before and after DVS,no transformation of crystalline form occurred
same,solid-state stability: crystalline transformation (XRPD) and purity (HPLC),"[3]; 25° C./60% RH/open, 1 week",no crystalline transformation or decrease in purity was observed
same,solid-state stability: crystalline transformation (XRPD) and purity (HPLC),"[3]; 40° C./75% RH/open, 1 week",no crystalline transformation or decrease in purity was observed
same,solid-state stability: crystalline transformation (XRPD) and purity (HPLC),"[3]; 60° C./close, 1 day",no crystalline transformation or decrease in purity was observed
same,solid-state stability: crystalline transformation (XRPD) and purity (HPLC),"[3]; 80° C./close, 1 day",no crystalline transformation or decrease in purity was observed
